The results in this text go back to patent publication US12285524B2, “Sustained-release pharmaceutical compositions comprising an antipsychotic drug and uses thereof” (priority 2018, dated 2025).

This data set in a line: in vivo. As to conditions: female, Sprague-Dawley, rat, sc, 10 mg/kg. As for the experimental part:
The rats were housed in a holding room which operated on a 12-hr light/12-hr dark circadian cycle with free access to water and food.
Plasma samples were obtained by centrifugation, kept frozen at −80° C. and analyzed using a noncompartmental analysis model in PKSolver (Comput Methods Programs Biomed. 2010; 99(3):306-314).

For orientation: AUC(0-inf) means total exposure, with the tail of the curve extrapolated. High values mean more exposure, low ones less exposure. One may read the AUC(0-t) as the area under the concentration-time curve up to a stated or last time point. A high value points to high exposure. As usually defined, the Cmax is the highest concentration seen after dosing. As to `Cc1nc2n(c(=O)c1CCN1CCC(c3noc4cc(F)ccc34)CC1)CCCC2` [Risperidone, risperidone], the AUC(0-inf) stood at 13300 ng·h/mL, the exposure AUC(0-t) was determined as 13200 ng·h/mL and the peak level (Cmax) was 4510 ng/mL. Also, under “8 h”, the “drug released, indicated by AUC0-t” value is listed as 100%.
